Measured values: patent publication EP4640674A1, “CRYSTAL FORMS OF ETHOXIMOD, PREPARATION METHOD THEREFOR AND USE THEREOF” (Jiankuan (Suzhou) Biotechnology Co., Ltd, priority 2022, dated 2024)

Assays:
Format in all cases: physicochemical
[1] = Equilibrium solubility in organic solvents at room temperature (HPLC; solid by XRPD); settings: equilibrium for 24 h; for solubility at 24 h: organic solvent or mixture, thermodynamic from solid; for solubility: hydrochloride
Experimental: The crystal form A and the crystal form B of ethoximod were prepared into solutions at room temperature with ethanol, acetone and ethyl acetate. After equilibrium for 24 h, filtration was performed to obtain saturated solutions, and contents of the samples in the saturated solutions were measured through high-performance liquid chromatography (HPLC) (diluting the filtrates as needed). Crystal forms of the solids before and after the experiment were characterized through XRPD to check whether phase transition had occurred.

[2] = Microscopic morphology and particle size; settings: optical microscope, 40× objective lens; hydrochloride
From the text: Samples of the crystal form A and the crystal form B of ethoximod were subjected to microscopic morphological researches. The morphology and particle sizes of the crystal form A and the crystal form B were observed under a 40× objective lens of an optical microscope. The crystal form A is irregular and plate-shaped with a raw material particle size of below 35 µm and a long/short diameter ratio of 1 to 2. The crystal form B aggregates and becomes spherical with a raw material particle size of below 20 µm.

[3] = Solid-state stability on storage (crystal form by XRPD, purity); settings: for Crystal Form after storage / main purity after storage / maximum single impurity after storage: 30 days exposed; for main purity / maximum single impurity: before storage
Experimental: Samples were taken before and after storage, and crystal forms were measured through XRPD. […] Table 3 Comparison of solid-state stability of crystal form A and crystal form B

[4] = 40 °C/75% RH, 60 °C and 92.5% RH for 30 days
[5] = light for 30 days, hydrochloride

Structure (SMILES)	solubility ([1]; ethyl acetate)	raw material particle size [2]	change in main purity [3, 4]	Crystal Form after storage ([3]; At 40 °C/75% RH, hydrochloride)	main purity after storage ([3]; At 40 °C/75% RH, hydrochloride)	maximum single impurity after storage ([3]; At 40 °C/75% RH, hydrochloride)	Crystal Form after storage ([3]; At 60 °C, hydrochloride)	main purity after storage ([3]; At 60 °C, hydrochloride)	maximum single impurity after storage ([3]; At 60 °C, hydrochloride)	Crystal Form after storage ([3]; At 92.5% RH, hydrochloride)	main purity after storage ([3]; At 92.5% RH, hydrochloride)	maximum single impurity after storage ([3]; At 92.5% RH, hydrochloride)	Crystal Form after storage ([3]; In light, hydrochloride)	main purity after storage ([3]; In light, hydrochloride)	maximum single impurity after storage ([3]; In light, hydrochloride)	main purity ([3]; hydrochloride)	maximum single impurity ([3]; hydrochloride)	change in main purity [3, 5]	other results
CCc1nc(-c2ccc(-c3ccc(CCC(N)(CO)CO)cc3)cc2)co1.Cl [crystal form A, 2-amino-2-{2-(4'-(2-ethyloxazol-4-yl)-[1,1'-biphenyl]-4-yl)ethyl}-1,3-propylene glycol hydrochloride]	40 µg/mL	below 35 µm	no significant change	crystal form A	98.88 A%	0.35 A%	crystal form A	98.82 A%	maximum single impurity: 0.35 A%	crystal form A	98.86 A%	maximum single impurity: 0.35 A%	crystal form A	97.79 A%	maximum single impurity: 0.34 A%	98.84 A%	0.40 A%	slightly decreased	solubility at 24 h ([1]; acetone): 30 µg/mL; solubility at 24 h ([1]; ethanol): 3470 µg/mL; time the crystal form is stable (XRPD) ([3]; 60 °C, 92.5% RH, light and 45 °C/75% RH): at least 30 days
CCc1nc(-c2ccc(-c3ccc(CCC(N)(CO)CO)cc3)cc2)co1.Cl [crystal form B, 2-amino-2-{2-(4'-(2-ethyloxazol-4-yl)-[1,1'-biphenyl]-4-yl)ethyl}-1,3-propylene glycol hydrochloride]	10 µg/mL	below 20 µm	no significant change	crystal form C	98.82 A%	maximum single impurity: 0.34 A%	crystal form B	98.61 A%	maximum single impurity: 0.36 A%	crystal transformed into the crystal form C	98.83 A%	maximum single impurity: 0.36 A%	crystal form B	91.81 A%	maximum single impurity: 1.57 A%	crystal form B main purity: 98.85 A%	maximum single impurity: 0.33 A%	decreased to a certain extent	solubility ([1]; acetone): 20 µg/mL; solid-state crystal form ([1]; ethanol): C, with relatively poor crystallinity; solubility ([1]; ethanol): 5050 µg/mL; time the crystal form is stable (XRPD) ([3]; 60 °C and light): at least 30 days; crystal form after storage (XRPD) ([3]; placed for 5 days under 92.5% RH and 45 °C/75% RH): crystal transformed into the crystal form C
